21 compounds from US7858635B2 (priority 2005, dated 2010) can be followed below.

The target of one assay is T1, M4 muscarinic receptor (Homo sapiens, UniProt P08173).
T1 construct: expressed in transfected cells; host or cells: CHO cells (M4-CHO, under puromycin, zeocin and blasticidin selection)
T1 sequence (P08173 1-479): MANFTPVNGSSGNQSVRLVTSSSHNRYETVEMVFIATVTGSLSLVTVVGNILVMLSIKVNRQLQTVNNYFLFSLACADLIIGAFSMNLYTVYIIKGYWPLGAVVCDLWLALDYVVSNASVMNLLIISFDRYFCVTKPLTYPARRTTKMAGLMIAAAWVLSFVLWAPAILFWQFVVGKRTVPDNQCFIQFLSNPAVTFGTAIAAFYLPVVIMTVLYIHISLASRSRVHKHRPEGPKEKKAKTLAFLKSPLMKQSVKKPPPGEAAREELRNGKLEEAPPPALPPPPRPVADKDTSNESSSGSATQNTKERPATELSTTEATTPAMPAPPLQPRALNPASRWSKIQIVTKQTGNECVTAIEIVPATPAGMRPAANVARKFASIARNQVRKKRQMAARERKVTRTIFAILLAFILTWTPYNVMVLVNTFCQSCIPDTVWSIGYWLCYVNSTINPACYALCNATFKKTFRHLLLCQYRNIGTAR
In words: Functional mobilization of intracellular calcium (FLIPR, Fluo-3), M4-CHO cells. The following applies: for Emax: 100% efficacy is the maximum response obtained with the Carbachol control, read-out: M4 Efficacy. Type of assay: cell-based. A digest of the protocol:
(§1)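 Intracellular calcium was tracked by fluorescence (488/540 nm) over 60 sec after compound addition to dye-loaded CHO cells expressing the receptor. Inhibitory activity used a 15 min pre-incubation before carbachol at the subtype EC80.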
In general terms: Calcium assays in cells follow changes in intracellular calcium, usually with a dye or a luminescent sensor.

The target of another assay is T2, M1 muscarinic receptor (Homo sapiens, UniProt P11229).
T2 construct: expressed in transfected cells; host or cells: CHO cells (M1-CHO, under zeocin and G418 selection)
T2 sequence (P11229 1-460): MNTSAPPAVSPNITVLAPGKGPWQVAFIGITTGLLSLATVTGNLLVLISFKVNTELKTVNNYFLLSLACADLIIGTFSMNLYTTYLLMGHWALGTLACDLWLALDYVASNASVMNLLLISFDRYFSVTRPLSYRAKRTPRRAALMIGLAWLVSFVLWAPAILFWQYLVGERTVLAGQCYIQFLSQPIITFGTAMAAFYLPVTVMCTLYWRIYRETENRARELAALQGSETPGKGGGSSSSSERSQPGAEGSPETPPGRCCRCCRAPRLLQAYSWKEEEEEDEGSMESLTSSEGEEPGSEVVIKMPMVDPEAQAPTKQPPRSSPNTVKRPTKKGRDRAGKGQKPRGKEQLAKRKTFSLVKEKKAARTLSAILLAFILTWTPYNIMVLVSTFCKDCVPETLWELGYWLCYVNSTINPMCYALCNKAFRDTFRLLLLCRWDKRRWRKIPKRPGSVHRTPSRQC
Nature of the assay: Functional mobilization of intracellular calcium (FLIPR, Fluo-3), M1-CHO cells. In kind it is cell-based. The settings on record: for Emax: 100% efficacy is the maximum response obtained with the Carbachol control, read-out: M1 Efficacy. The method in brief: as §1

The mark [1] stands for this setting: compound nos. 1-454, M4-CHO cells, calcium mobilization.
The mark [2] stands for this setting: compound nos. 1-454, M1-CHO cells, calcium mobilization.

Structures are written as SMILES. Read-outs that look alike come from different tables or passages of the source.

Regarding `CC(=O)N[C@H]1CC2(CCN(C3CCCCC3)CC2)c2ccccc21` [compound 196], the Emax was less than 55% at M4 muscarinic receptor (compound nos. 1-454) and 65 to 85% on M1 muscarinic receptor (compound nos. 1-454). Moreover, the “M4 Activity” value on M4 muscarinic receptor (setting [1]) is on record as “+ (activity was measured to be greater than or equal to 4.0 μM)”. Besides, the “M1 Activity” value at M1 muscarinic receptor (setting [2]) is “+++ (activity was measured to be less than or equal to 0.7 μM)”.
`CN(C)C(=O)N1CC2(CCN(C3CCN(c4cccnc4)CC3)CC2)c2cc(F)ccc21` [compound 453]: on M4 muscarinic receptor (compound nos. 1-454), the “M4 Activity” value was “+++ (activity was measured to be less than or equal to 0.1 μM)” and the Emax fell in the range of 55 to 70%. At M1 muscarinic receptor (compound nos. 1-454), the “M1 Activity” value is reported as “+++ (activity was measured to be less than or equal to 0.7 μM)” and the Emax lay within 65 to 85%.
Taken in the same sequence, the figures for `CCOC(=O)N1CCC(N2CCC3(CC2)CN(C(C)=O)c2c(F)cccc23)CC1` [compound 381] were “+ (activity was measured to be greater than or equal to 4.0 μM)”, less than 55%, “+++ (activity was measured to be less than or equal to 0.7 μM)” and 65 to 85%.
On to `CCOC(=O)N1CCC(N2CCC3(CC2)CN(C(C)=O)c2ccc(-c4ccccc4)cc23)CC1` [compound 126], for which the figures for the Emax at M4 muscarinic receptor (compound nos. 1-454) and on M1 muscarinic receptor (compound nos. 1-454) were less than 55% and less than 65%, respectively. The “M4 Activity” value on M4 muscarinic receptor (setting [1]) is “+ (activity was measured to be greater than or equal to 4.0 μM)”. In addition, the “M1 Activity” value at M1 muscarinic receptor (setting [2]) was “+++ (activity was measured to be less than or equal to 0.7 μM)”.
As for `CC(=O)N1CC2(CCN(C3CCN(C(=O)OC4CCC4)CC3)CC2)c2cc(F)ccc21` [compound 140], the Emax on M4 muscarinic receptor (compound nos. 1-454) is greater than 70%; at M1 muscarinic receptor (compound nos. 1-454) it was greater than 85%. Further, the “M4 Activity” value at M4 muscarinic receptor (setting [1]) is “+++ (activity was measured to be less than or equal to 0.1 μM)”. At M1 muscarinic receptor (setting [2]), the “M1 Activity” value is reported as “+++ (activity was measured to be less than or equal to 0.7 μM)”.
In the case of `CCc1nsc(N2CCC(N3CCC4(CC3)C[C@H](N(CC(F)(F)F)C(C)=O)c3ccccc34)CC2)n1` [compound 502], the Emax at M4 muscarinic receptor (compound nos. 455-509) and on M1 muscarinic receptor (compound nos. 455-509) was 25 to 100% in each case. Further, on M4 muscarinic receptor (compounds 455-509), the “M4 Activity” value was “++ (activity was measured to be between 2.0 μM and 5.0 μM)”. For the same compound, the “M1 Activity” value at M1 muscarinic receptor (compounds 455-509) is “++ (activity was measured to be between 2.0 μM and 5.0 μM)”.
As to `CCOC(=O)N1CCC(N2CCC3(CC2)CN(C(C)=O)c2ccc(-c4ccc(OC)cc4)cc23)CC1` [compound 193], the Emax on M4 muscarinic receptor (compound nos. 1-454) was less than 55%; at M1 muscarinic receptor (compound nos. 1-454), less than 65%. Besides, the “M4 Activity” value at M4 muscarinic receptor (setting [1]) is given as “+ (activity was measured to be greater than or equal to 4.0 μM)”. For the same compound, at M1 muscarinic receptor (setting [2]), the “M1 Activity” value is reported as “+ (activity was measured to be greater than or equal to 3.0 μM)”.
On the same counts, the results for `COC(=O)N1CCC(CN2CCC3(CC2)C[C@H](NC(C)=O)c2ccccc23)CC1` [compound 182] are 55 to 70%, 65 to 85%, “+ (activity was measured to be greater than or equal to 4.0 μM)” and “+ (activity was measured to be greater than or equal to 3.0 μM)”.
Taken in the same sequence, the figures for `CCCOC(=O)N1C2CCC1CC(N1CCC3(CC1)CN(C(=O)C1CCC1)c1ccc(F)cc13)C2` (stereo not drawn) [compound 302] were less than 55%, less than 65%, “+ (activity was measured to be greater than or equal to 4.0 μM)” and “+ (activity was measured to be greater than or equal to 3.0 μM)”.
`CCOC(=O)N1CCC(N2CCC3(CC2)CN(C(=O)c2cc(C)oc2C)c2ccc(F)cc23)CC1` [compound 335]: the Emax was less than 55% at M4 muscarinic receptor (compound nos. 1-454) and less than 65% on M1 muscarinic receptor (compound nos. 1-454). On M4 muscarinic receptor (setting [1]), the “M4 Activity” value is “+ (activity was measured to be greater than or equal to 4.0 μM)”. Also, the “M1 Activity” value at M1 muscarinic receptor (setting [2]) is listed as “+ (activity was measured to be greater than or equal to 3.0 μM)”.
In the case of `Cc1ccc(N2CCC(N3CCC4(CC3)CN(C(=O)N(C)C)c3ccc(F)cc34)CC2)nn1` [compound 462], the Emax on M4 muscarinic receptor (compound nos. 455-509) is less than 25%; on M1 muscarinic receptor (compound nos. 455-509) it was 25 to 100%. Moreover, on M4 muscarinic receptor (compounds 455-509), the “M4 Activity” value was “++ (activity was measured to be between 2.0 μM and 5.0 μM)”. Further, the “M1 Activity” value on M1 muscarinic receptor (compounds 455-509) is “+ (activity was measured to be greater than or equal to 5.0 μM)”.
Regarding `O=C(OC1CCC1)N1C2CCC1CC(N1CCC3(CC1)COc1ccc(F)cc13)C2` (stereo not drawn) [compound 123], the results for the Emax at M4 muscarinic receptor (compound nos. 1-454) and on M1 muscarinic receptor (compound nos. 1-454) were less than 55% and less than 65%, respectively. The “M4 Activity” value on M4 muscarinic receptor (setting [1]) was “+ (activity was measured to be greater than or equal to 4.0 μM)”. In addition, the “M1 Activity” value at M1 muscarinic receptor (setting [2]) was “++ (activity was measured to be between 0.7 μM and 3.0 μM)”.
For `CCOC(=O)N1CCC(N2CCC3(CC2)CN(C(=O)c2ccc4c(c2)OCO4)c2ccc(F)cc23)CC1` [compound 401], at M4 muscarinic receptor (compound nos. 1-454), the “M4 Activity” value is “+ (activity was measured to be greater than or equal to 4.0 μM)” and the Emax is less than 55%. Also, at M1 muscarinic receptor (compound nos. 1-454), the “M1 Activity” value is reported as “+++ (activity was measured to be less than or equal to 0.7 μM)” and the Emax is 65 to 85%.
For the compound `CC(=O)N1CC2(CCN(C3CCN(C(=O)OC(C)C)CC3)CC2)c2cc(F)ccc21` [compound 269], the Emax on M4 muscarinic receptor (compound nos. 1-454) is greater than 70%; on M1 muscarinic receptor (compound nos. 1-454), 65 to 85%. For the same compound, at M4 muscarinic receptor (setting [1]), the “M4 Activity” value was “+++ (activity was measured to be less than or equal to 0.1 μM)”. On M1 muscarinic receptor (setting [2]), the “M1 Activity” value was “+++ (activity was measured to be less than or equal to 0.7 μM)”.
On the same counts, the results for `CCOC(=O)N1CCC(N2CCC3(CC2)C(=O)N(C)c2ccccc23)CC1` [compound 31] are 55 to 70%, greater than 85%, “+++ (activity was measured to be less than or equal to 0.1 μM)” and “+++ (activity was measured to be less than or equal to 0.7 μM)”.
On the same counts, the results for `CCOC(=O)N1CCC(N2CCC3(CC2)CN(C(=O)C2CCC2)c2ccc(F)cc23)CC1` [compound 254] are 55 to 70%, 65 to 85%, “+ (activity was measured to be greater than or equal to 4.0 μM)” and “+ (activity was measured to be greater than or equal to 3.0 μM)”.
Taken in the same sequence, the figures for `CCCCC(=O)N1CC2(CCN(C3CCN(C(=O)OCC)CC3)CC2)c2cc(F)ccc21` [compound 270] were greater than 70%, 65 to 85%, “+++ (activity was measured to be less than or equal to 0.1 μM)” and “+++ (activity was measured to be less than or equal to 0.7 μM)”.
`CS(=O)(=O)N1CC2(CCN(C3CC4CCC(C3)N4C(=O)OC3CCC3)CC2)c2cc(F)ccc21` (stereo not drawn) [compound 122]: the Emax was less than 55% on M4 muscarinic receptor (compound nos. 1-454) and 65 to 85% at M1 muscarinic receptor (compound nos. 1-454). Further, the “M4 Activity” value on M4 muscarinic receptor (setting [1]) was “++ (activity was measured to be between 0.1 μM and 4.0 μM)”. Besides, the “M1 Activity” value at M1 muscarinic receptor (setting [2]) is recorded as “+++ (activity was measured to be less than or equal to 0.7 μM)”.
On to `CCOC(=O)N1C2CCC1CC(N1CCC3(CC1)CN(C(=O)NC(C)C)c1ccc(F)cc13)C2` (stereo not drawn) [compound 296], for which the Emax lay within 55 to 70% at M4 muscarinic receptor (compound nos. 1-454) and 65 to 85% on M1 muscarinic receptor (compound nos. 1-454). Besides, at M4 muscarinic receptor (setting [1]), the “M4 Activity” value was “+ (activity was measured to be greater than or equal to 4.0 μM)”. Further, the “M1 Activity” value at M1 muscarinic receptor (setting [2]) is reported as “+ (activity was measured to be greater than or equal to 3.0 μM)”.
Taken in the same sequence, the figures for `CC(=O)N1CC2(CCN(C3CCCC3)CC2)c2cc(F)ccc21` [compound 343] were less than 55%, 65 to 85%, “+++ (activity was measured to be less than or equal to 0.1 μM)” and “+++ (activity was measured to be less than or equal to 0.7 μM)”.
Take `CCOC(=O)C1CCC(N2CCC3(CC2)CN(C(C)=O)c2ccc(F)cc23)CC1` (stereo not drawn) [compound 228]: the Emax on M4 muscarinic receptor (compound nos. 1-454) is less than 55%; on M1 muscarinic receptor (compound nos. 1-454) it was less than 65%. In addition, at M4 muscarinic receptor (setting [1]), the “M4 Activity” value is “+ (activity was measured to be greater than or equal to 4.0 μM)”. In addition, the “M1 Activity” value on M1 muscarinic receptor (setting [2]) is “+ (activity was measured to be greater than or equal to 3.0 μM)”.
